Measurements as given in the NIST ThermoML archive (doi:10.1016/j.jct.2016.04.023).
Numbers after ± are expanded uncertainties.

Test: Boiling temperature at pressure P
Details: Liquid, DSC

SMILES	Boiling temperature at pressure P (3.47 kPa)	other results
CCCC(=O)OCC(COC(=O)CCC)OC(=O)CCC [1,2,3-propanetriyl tributanoate]	201.40 ± 1.9 °C	
CCCCCCCCCCCCCCCCCCO [1-octadecanol]	225.89 ± 1.8 °C	
CCCCCCCC(=O)OCC(O)CO (stereo unspecified) [2,3-dihydroxypropyl octanoate]	211.90 ± 1.9 °C	
OCC(O)CO [glycerol]	186.13 ± 1.7 °C	
CCCCCCCCCCCCCCCC [hexadecane]	170.91 ± 2.5 °C	Boiling temperature at pressure P (10.37 kPa): 200.90 ± 1.7 °C; Boiling temperature at pressure P (15.17 kPa): 213.66 ± 1.6 °C; Boiling temperature at pressure P (18.66 kPa): 220.5 ± 2.6 °C; Boiling temperature at pressure P (22.39 kPa): 223.27 ± 2.3 °C
CCCCCCCCCCCCCCCCCC [octadecane]	196.81 ± 1.9 °C	
CCCCCCCC(=O)O [octanoic acid]	144.04 ± 1.9 °C	
